Laboratory results as given in patent publication US6753310B1, “Neovascular-specific peptides” (Otsuka Pharmaceutical Co., Ltd., priority 1998, dated 2004).
Where no end group is shown, it is not given here.

Experiments:
[1] = test system: Meth A sarcoma; experiment: Tumor growth inhibition (tumor volume) in solid tumor-bearing mice, subcutaneous administration; format: in vivo, BALB/c mice; settings: for antitumor activity (tumor volume) / order of intensities of the antitumor activity: FIG. 10; for tumor growth inhibiting effect (tumor volume): FIG. 3, days 1 to 11, vs distilled water
Protocol: Solid tumor-bearing mice were prepared by subcutaneously administering 0.2 ml of Meth A sarcoma cells (5×10^6 cells/ml) into the left flank of five-week-old BALB/c male mice (Japan SLC). After 6 to 10 days from sarcoma implantation, when the diameter of the post-implantation tumor in tumor-bearing mice arrived at 4 mm was taken as day 1 and, on days 1 to 11, distilled water (D.W.) as a control or 20 mg/kg/day of each of the above dendrimers (1) to (3) was subcutaneously administered for 11 consecutive days (4 mice were used in each group).
The antitumor effect of each dendrimer peptide was evaluated 6 days after implantation and thereafter by examining the tumor growth, the body weight change and the survival time (days) as an indicator of side effect. At the same time, the minor axis and major axis of each tumor were measured and the tumor volume was calculated according to the formula shown below.
Tumor volume=0.4×a×b^2 (a: major axis, b: minor axis)
Doses of 10 mg/kg×twice/day and 20 mg/kg×twice/day of the dendrimer peptide derived from the peptide of SEQ ID NO:1 as synthesized in Example 4 (1) and a dose of 20 mg/kg×twice/day of a dendrimer peptide (SEQ ID NO:18) derived from a peptide resulting from replacement of an arbitrary sequence for the sequence shown in SEQ ID NO:1, and distilled water (DW) as a control were subcutaneously administered to mice on days 1 to 10 after tumor cell implantation according to the method of Example 4 (2), and the tumor growth inhibiting activities were examined. Four to six mice per group were subjected to the experiment. The results obtained are shown in FIG. 5 in the same manner as in FIG. 3 (ordinate: tumor volume (cm^3), abscissa: days after tumor cell implantation (days)).
The three short-chain peptides synthesized and physiological saline as a control were respectively administered subcutaneously to mice on days 1 to 10 following tumor cell implantation according to the method of Example 4 (2), and the tumor growth inhibiting activities were examined. The results obtained are shown in FIG. 6 in the same manner as in FIG. 3.
A dose of 20 mg/kg/day of each of the peptides synthesized in the above manner or distilled water (DW) as a control was subcutaneously administered to mice on days 4 to 9 after tumor cell implantation according to the method of Example 4 (2), and the tumor growth inhibiting activities were examined. Three to five mice per group were used in the experiment. The results are shown in FIG. 7 in the same manner as in FIG. 3.
A dose of 20 mg/kg/day of each of the peptides synthesized in the above manner or physiological saline as a control was subcutaneously administered to mice on days 1 to 10 after tumor cell implantation according to the method of Example 4 (2), and the tumor growth inhibiting activities were examined. Four or five mice per group were used in the experiment. The results are shown in FIG. 8 in the same manner as in FIG. 3.
A dose of 20 mg/kg/day of each of the peptides synthesized in the above manner or distilled water as a control was subcutaneously administered to mice on days 1 to 10 after tumor cell implantation according to the method of Example 4 (2), and the tumor growth inhibiting activities were examined. Five or six mice per group were used in the experiment. The results are shown in FIG. 9 in the same manner as in FIG. 3.
A dose of 20 mg/kg/day of each of the peptides synthesized in the above manner or distilled water or physiological saline as a control was subcutaneously administered to mice on days 1 to 10 after tumor cell implantation according to the method of Example 4 (2), and the tumor growth inhibiting activities were examined. Five or six mice per group were used in the experiment. The results are shown in FIG. 10 (results with the peptides of SEQ ID NO:28-32) and FIG. 11 (results with the peptides of SEQ ID NO:33-35) in the same manner as in FIG. 3. […]

[2] = test system: B16BL6 melanoma tumor tissue; experiment: Competitive inhibition experiment using the respective phages and synthetic 15-residue peptides; format: in vivo, C57BL/6 mice; settings: for % Dose/100 mg tissue: tail vein; for inhibitory activity against accumulation of phages Nos. 5 and 6: synthetic peptides with common sequence WRP
Protocol: The synthetic peptides having the amino acid sequences shown in SEQ ID NO:1, 5 and 6 were respectively administered simultaneously with the phages No. 1, No. 5 and No. 6 in a similar manner as in Example 1 (5). Each peptide was synthesized as in Example 2.
(§1) Thus, 10 days after implantation of B16BL6 melanoma (1×10^6 cells) into five-week-old C57BL/6 mice (obtained from Japan SLC), a mixed solution (0.2 ml) of 0.25 μmol of one of the above synthetic peptides and the respective phage (1×10^8 colony forming units) was administered into the tail vein of each tumor-bearing mouse under anesthesia, and the colony forming units of the phage accumulated in the tumor tissue were counted in a similar manner as mentioned above.
In a control group, synthetic peptide-free phage solutions (1×10^8 colony forming units) were administered.
Phages accumulated in neovascular tissues in tumor tissues were counted through colony formation, and each synthetic peptide was evaluated for its inhibitory effect on phage accumulation using, as a reference value, the ratio of accumulation of the peptide-expressing phage in tumor without simultaneous administration of the synthetic peptide.

[3] = test system: B16BL6 melanoma tumor tissue; experiment: Competitive inhibition experiment using the respective phages and synthetic 8-residue or 5-residue peptides; format: in vivo, C57BL/6 mice; settings: for inhibition of phage accumulation in tumor by 5-residue synthetic peptides: FIG. 2, SEQ ID NO:15 with phage No. 5, SEQ ID NO:16 with phage No. 6
Protocol: as §1
Using a similar method as described above under (2) and using the four short-chain peptides (SEQ ID NO:13 to 16) obtained as mentioned above under (2) in lieu of the synthetic peptides (SEQ ID NO:5 and 6), the synthetic peptides and the respective phages were administered and colony forming units for the phages accumulated in the tumor tissue were counted, and the short-chain synthetic peptides were evaluated for their inhibitory effect on phage accumulation. In a control group,synthetic peptide-free phage solutions (1×10^8 colony forming units) were administered.
In each figure, the ordinate denotes the phase accumulation percentage (%) and the abscissa denotes the phage number. In FIG. 1, the open bar is for the group (control group) given the phage alone without administration of any synthetic peptide, the shaded bar is for the group given the short-chain synthetic peptide shown in SEQ ID NO:13 and the closed bar is for the group given the short-chain synthetic peptide shown in SEQ ID NO:14.
In FIG. 2, the open bar is for the group (control group) given the phage alone without administration of any synthetic peptide, the closed bar is for the group given the short-chain peptide shown in SEQ ID NO:15 (where phage No. 5 was used) and the shaded bar is for the group given the short-chain peptide shown in SEQ ID NO:16 (where phage No. 6 was used).

[4] = FIG. 6, subcutaneously, days 1 to 10, vs physiological saline
[5] = 20 mg/kg/day subcutaneously, days 1 to 10
[6] = accumulation of phage No. 1 (1×10^8 cfu) co-administered with 0.25 μmol synthetic peptide
[7] = accumulation of phage No. 5 (1×10^8 cfu) co-administered with 0.25 μmol synthetic peptide
[8] = accumulation of phage No. 6 (1×10^8 cfu) co-administered with 0.25 μmol synthetic peptide
[9] = inhibition of phage No. 1 accumulation in tumor by 0.25 μmol synthetic peptide
[10] = inhibition of phage No. 5 accumulation in tumor by 0.25 μmol synthetic peptide
[11] = inhibition of phage No. 6 accumulation in tumor by 0.25 μmol synthetic peptide

APRPG (APRPG-NH2) [SEQ ID NO: 17]
tumor growth inhibiting activity (tumor volume) [1, 4]: tendency toward inhibition of tumor growth

SEQ ID NO: 31: 4-Residue peptide comprising positions 10 to 13 of SEQ ID NO: 6 (WRPW; phage library)
antitumor activity (tumor volume) [1, 5]: has antitumor activity | order of intensities of the antitumor activity [1, 5]: peptide of SEQ ID NO:28=peptide of SEQ ID NO:29>peptide of SEQ ID NO:30=peptide of SEQ ID NO:31>peptide of SEQ ID NO:32

SEQ ID NO: 28: 4-Residue peptide comprising positions 2 to 5 of SEQ ID NO: 5 (RWRP; phage library)
antitumor activity (tumor volume) [1, 5]: has antitumor activity | order of intensities of the antitumor activity [1, 5]: peptide of SEQ ID NO:28=peptide of SEQ ID NO:29>peptide of SEQ ID NO:30=peptide of SEQ ID NO:31>peptide of SEQ ID NO:32

(PRPGAPLAGSWPGTS)8-Lys4-Lys2-Lys-βAla (also: octameric lysine dendrimer (Lys4-Lys2-Lys-βAla core), 8 copies)
tumor growth inhibiting effect (tumor volume) ([1]; 20 mg/kg/day subcutaneously): marked tumor growth inhibiting effects | tumor growth inhibiting activity (tumor volume) ([1]; FIG. 5, 10 and 20 mg/kg×twice/day subcutaneously, days 1 to 10): dose-dependent tumor growth inhibiting activity

(ASSSYPLIHWRPWAR)8-LYs4-Lys2-Lys-βAla (also: octameric lysine dendrimer (Lys4-Lys2-Lys-βAla core), 8 copies)
tumor growth inhibiting effect (tumor volume) ([1]; 20 mg/kg/day subcutaneously): marked tumor growth inhibiting effects

DRWRPALPVVLFPLH (phage library) [SEQ ID NO: 5]
tumor growth inhibiting activity (tumor volume) ([1]; FIG. 7, 20 mg/kg/day subcutaneously, days 4 to 9): have tumor growth inhibiting activity | % Dose/100 mg tissue [2, 6]: 6.36 × 10^−3 % Dose/100 mg tissue | % Dose/100 mg tissue [2, 7]: 5.08 × 10^−3 % Dose/100 mg tissue | % Dose/100 mg tissue [2, 8]: 6.60 × 10^−3 % Dose/100 mg tissue | Accumulation inhibition % [2, 9]: 52% | Accumulation inhibition % [2, 10]: 66% | Accumulation inhibition % [2, 11]: 43% | inhibitory activity against accumulation of phages Nos. 5 and 6 [2]: crosswise inhibitory activity

HWRPW (HWRPW-NH2) [SEQ ID NO: 16]
inhibition of phage accumulation in tumor by 5-residue synthetic peptides [3]: inhibit likewise the accumulation in tumor of the phages

SEQ ID NO: 13: 8-Residue peptide comprising positions 1 to 8 of SEQ ID NO: 5 (DRWRPALP; phage library)
cross reactivity between phages ([3]; FIG. 1): showed cross reactivity | inhibitory activity compared with the 15-residue synthetic peptides ([3]; FIG. 1): higher in inhibitory activity than the 15-resiude synthetic peptides | inhibition of phage accumulation by 8-residue synthetic peptides ([3]; FIG. 1, phages expressing the corresponding 15-residue peptides (Nos. 5 and 6)): inhibited the accumulation of the phages

SEQ ID NO: 19: 12-Residue peptide containing positions 1 to 8 of SEQ ID NO: 1 (ADGAPRPGAPLA; phage library)
tumor growth inhibiting activity (tumor volume) [1, 4]: tendency toward inhibition of tumor growth

SEQ ID NO: 29: 4-Residue peptide comprising positions 9 to 12 of SEQ ID NO: 6 (HWRP; phage library)
antitumor activity (tumor volume) [1, 5]: has antitumor activity | order of intensities of the antitumor activity [1, 5]: peptide of SEQ ID NO:28=peptide of SEQ ID NO:29>peptide of SEQ ID NO:30=peptide of SEQ ID NO:31>peptide of SEQ ID NO:32

RWRPA (RWRPA-NH2) [SEQ ID NO: 15]
inhibition of phage accumulation in tumor by 5-residue synthetic peptides [3]: inhibit likewise the accumulation in tumor of the phages

(DRWRPALPVVLFPLH)8-Lys4-Lys2-Lys-βAla (also: octameric lysine dendrimer (Lys4-Lys2-Lys-βAla core), 8 copies)
tumor growth inhibiting effect (tumor volume) ([1]; 20 mg/kg/day subcutaneously): marked tumor growth inhibiting effects

SEQ ID NO: 30: 4-Residue peptide comprising positions 3 to 12 of SEQ ID NO: 5 (WRPA; phage library)
antitumor activity (tumor volume) [1, 5]: has antitumor activity | order of intensities of the antitumor activity [1, 5]: peptide of SEQ ID NO:28=peptide of SEQ ID NO:29>peptide of SEQ ID NO:30=peptide of SEQ ID NO:31>peptide of SEQ ID NO:32

Trp-Arg-Pro (WRP; phage library) [SEQ ID NO: 32]
antitumor activity (tumor volume) [1, 5]: has antitumor activity | order of intensities of the antitumor activity [1, 5]: peptide of SEQ ID NO:28=peptide of SEQ ID NO:29>peptide of SEQ ID NO:30=peptide of SEQ ID NO:31>peptide of SEQ ID NO:32

PRPGAPLAGSWPGTS (phage library) [SEQ ID NO: 1]
% Dose/100 mg tissue [2, 6]: 5.95 × 10^−3 % Dose/100 mg tissue | % Dose/100 mg tissue [2, 7]: 1.35 × 10^−2 % Dose/100 mg tissue | % Dose/100 mg tissue [2, 8]: 1.14 × 10^−2 % Dose/100 mg tissue | Accumulation inhibition % [2, 9]: 55% | Accumulation inhibition % [2, 10]: 9%

ASSSYPLIHWRPWAR (phage library) [SEQ ID NO: 6]
% Dose/100 mg tissue [2, 6]: 5.92 × 10^−3 % Dose/100 mg tissue | % Dose/100 mg tissue [2, 7]: 3.61 × 10^−3 % Dose/100 mg tissue | % Dose/100 mg tissue [2, 8]: 6.43 × 10^−3 % Dose/100 mg tissue | Accumulation inhibition % [2, 9]: 55% | Accumulation inhibition % [2, 10]: 76% | Accumulation inhibition % [2, 11]: 44% | inhibitory activity against accumulation of phages Nos. 5 and 6 [2]: crosswise inhibitory activity
